Values after ≈ are worked out from the molar mass of the structure shown.
How the values were obtained:
RARα = molecular target: T1, RARα (Homo sapiens, UniProt P10276); assay: Transactivation (luciferase) antagonist assay, RARα; assay type: cell-based; conditions: vs EC80 (180 nM) 9-cis-RA, luciferase readout; read-out: RARα Antagonism IC50
T1 construct: host or cells: unnamed reporter cells
T1 sequence (P10276 1-462): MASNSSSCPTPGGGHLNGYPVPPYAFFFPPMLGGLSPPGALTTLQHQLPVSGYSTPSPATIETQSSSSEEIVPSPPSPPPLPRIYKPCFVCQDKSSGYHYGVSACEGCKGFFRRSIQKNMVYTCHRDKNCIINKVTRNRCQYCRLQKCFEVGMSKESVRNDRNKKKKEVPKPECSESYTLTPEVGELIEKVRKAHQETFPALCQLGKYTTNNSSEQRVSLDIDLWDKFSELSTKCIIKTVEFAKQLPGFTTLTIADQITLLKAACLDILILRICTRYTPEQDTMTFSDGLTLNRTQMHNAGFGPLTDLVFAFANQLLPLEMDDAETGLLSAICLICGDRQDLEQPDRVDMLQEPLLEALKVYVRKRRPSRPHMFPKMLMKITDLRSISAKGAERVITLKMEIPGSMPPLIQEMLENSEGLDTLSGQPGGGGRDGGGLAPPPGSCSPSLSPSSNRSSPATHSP
Description: (§1) Control wells containing cells without added agonist defined the background signal values. […] Cell suspension (30 μL) was added to each well and the assay plate was incubated overnight in a 5% CO2 incubator at 37° C. Luciferase detection reagent (15 μL) was then added and the plate was incubated at RT for 30 minutes. Luminescence was quantified using an EnSpire plate reader (PerkinElmer, Waltham, MA). IC50 values were determined by fitting dose response data using the four-parameter logistic equation in GraphPad Prism 7.0.

RARγ = molecular target: T2, RARγ (Homo sapiens, UniProt P13631); assay: Transactivation (luciferase) antagonist assay, RARγ; assay type: cell-based; conditions: vs EC80 (8 nM) ATRA, luciferase readout; read-out: RARγ Antagonism IC50
T2 construct: host or cells: unnamed reporter cells
T2 sequence (P13631 1-454): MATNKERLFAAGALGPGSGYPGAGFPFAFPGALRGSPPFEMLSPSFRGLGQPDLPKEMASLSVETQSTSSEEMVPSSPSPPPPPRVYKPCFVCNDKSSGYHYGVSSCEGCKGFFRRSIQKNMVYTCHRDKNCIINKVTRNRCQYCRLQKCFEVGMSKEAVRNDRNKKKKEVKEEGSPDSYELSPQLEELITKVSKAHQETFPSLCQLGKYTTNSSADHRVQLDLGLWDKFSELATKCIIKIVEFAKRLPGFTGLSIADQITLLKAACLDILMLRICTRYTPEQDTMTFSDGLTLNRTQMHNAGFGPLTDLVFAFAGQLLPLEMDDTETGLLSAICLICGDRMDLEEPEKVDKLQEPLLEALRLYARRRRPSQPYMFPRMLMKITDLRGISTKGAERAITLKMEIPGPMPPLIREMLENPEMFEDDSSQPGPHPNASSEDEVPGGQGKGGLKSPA
Description: as §1

RARβ = molecular target: T3, RARβ (Homo sapiens, UniProt P10826); assay: Transactivation (luciferase) antagonist assay, RARβ; assay type: cell-based; conditions: vs EC80 (8 nM) ATRA, luciferase readout; read-out: RARβ Antagonism IC50
T3 construct: host or cells: unnamed reporter cells
T3 sequence (P10826 1-455): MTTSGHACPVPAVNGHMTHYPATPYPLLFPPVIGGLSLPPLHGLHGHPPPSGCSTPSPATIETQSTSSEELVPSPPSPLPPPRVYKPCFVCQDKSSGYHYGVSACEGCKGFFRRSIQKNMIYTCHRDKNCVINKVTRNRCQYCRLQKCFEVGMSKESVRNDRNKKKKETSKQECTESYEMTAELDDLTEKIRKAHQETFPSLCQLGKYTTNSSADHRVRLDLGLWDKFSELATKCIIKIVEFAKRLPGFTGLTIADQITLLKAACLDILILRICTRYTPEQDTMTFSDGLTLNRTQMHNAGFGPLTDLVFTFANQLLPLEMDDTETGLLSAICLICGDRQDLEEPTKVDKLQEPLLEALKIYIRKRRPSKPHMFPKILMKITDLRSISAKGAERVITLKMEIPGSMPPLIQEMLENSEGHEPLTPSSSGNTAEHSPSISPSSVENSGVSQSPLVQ
Description: as §1

[1] = Solubility in PBS at pH 7.4; assay type: physicochemical

IC50 (RARα) [nM]	IC50 (RARγ) [nM]	IC50 (RARβ) [nM]	Compound	solubility [1] [µM]
100	–	–	Cc1ccc(C2=CC(C)(C)Oc3ccc(-c4ccc(-c5ccc(C(=O)O)c(F)c5)[nH]4)cc32)cc1	–
470	–	–	Cc1ccc(C2=CC(C)(C)Oc3ccc(-c4ccc(-c5cc(F)c(C(=O)O)c(F)c5)[nH]4)cc32)cc1	–
2000	–	–	COc1cc2c(cc1-c1ccc(-c3ccc(C(=O)O)cc3)[nH]1)C(c1ccc(C)cc1)=CC(C)(C)O2	–
15	> 3300	> 3300	CC1(C)C=C(c2ccccc2)c2cc(-c3ccc(-c4ccc(C(=O)O)cc4)[nH]3)ccc2O1	–
94	> 3000	> 3000	Cc1ccc(C2=CC(C)(C)Oc3ccc(-c4ccc(-c5ccc(C(=O)O)c(O)c5)[nH]4)cc32)cc1	–
87	> 3000	> 3000	Cc1ccc(C2=CC(C)(C)Oc3ccc(-c4ccc(-c5ccc(C(=O)O)c(C)c5)[nH]4)cc32)cc1	–
–	–	–	CC(=O)[C@H]1CC[C@H]2[C@@H]3CCC4=CC(=O)CC[C@]4(C)[C@H]3CC[C@]12C [Progesterone, reference compound]	14.02 (≈ 4.41 µg/mL)
